From publication PMC314469, “Protein Interaction Networks by Proteome Peptide Scanning” (PLoS Biology, 2004)
No end group written: not given here.

What was measured:
Type in all cases: binding
[1] = target: T1, Rvs167 SH3 domain (GST-fused) (Saccharomyces cerevisiae, UniProt P39743); assay: Surface plasmon resonance (BIAcoreX) dissociation constants of peptides, Rvs167 SH3 domain; conditions: Figure 4A; SPR BIAcoreX, GST-SH3 coupled to CM5 chip, GST control; peptides in 10 mM HEPES, 150 mM NaCl, 3.4 mM EDTA, 0.005% P20, pH 7.4, 25°C; steady-state model; read-out: dissociation constant, SH3 DOMAINS RVS167
T1 construct: Experiments were carried out on sensor chips with GST-fused SH3 domains and GST as a control; made in house
T1 sequence (P39743 421-482 limits assumed): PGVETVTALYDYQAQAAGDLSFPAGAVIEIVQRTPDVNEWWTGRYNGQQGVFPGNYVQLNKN
Description: (§1) Figure 4 Measurement of Dissociation Constants and Correlation with SPOT Intensities (A) Dissociation constants were measured with a BIAcoreX instrument as described in the Materials and Methods. The experiments with the Abp1 SH3 domain were carried out in triplicate. (B) Normalized BLU intensities plotted as a function of the log of the dissociation constant.
(§2) Surface plasmon resonance measurements were carried out with a BIAcoreX instrument (BIAcore, Uppsala, Sweden). Experiments were carried out on sensor chips with GST-fused SH3 domains and GST as a control. […] Interaction analysis was performed at 25°C with the peptides dissolved in 10 mM HEPES, 150 mM NaCl, 3.4 mM EDTA, and 0.005% surfactant P20 (pH 7.4), at 15 μl/min flow rate, using six to seven dilutions, ranging from 500 μM to 65 nM. Dissociation constant values were evaluated by applying the steady-state model using BIAcore evalution 3.1 software.

[2] = target: T2, Yfr024c SH3 domain (GST-fused) (Saccharomyces cerevisiae, UniProt P43603); assay: Surface plasmon resonance (BIAcoreX) dissociation constants of peptides, Yfr024c SH3 domain; conditions: Figure 4A; SPR BIAcoreX, GST-SH3 coupled to CM5 chip, GST control; peptides in 10 mM HEPES, 150 mM NaCl, 3.4 mM EDTA, 0.005% P20, pH 7.4, 25°C; steady-state model; read-out: dissociation constant, SH3 DOMAINS YFR024C
T2 construct: Experiments were carried out on sensor chips with GST-fused SH3 domains and GST as a control; made in house
T2 sequence (P43603 400-459 limits assumed): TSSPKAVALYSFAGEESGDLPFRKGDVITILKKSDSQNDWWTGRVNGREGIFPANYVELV
Description: as §1, §2

[3] = target: T3, Ysc84 SH3 domain (GST-fused) (Saccharomyces cerevisiae, UniProt P32793); assay: Surface plasmon resonance (BIAcoreX) dissociation constants of peptides, Ysc84 SH3 domain; conditions: Figure 4A; SPR BIAcoreX, GST-SH3 coupled to CM5 chip, GST control; peptides in 10 mM HEPES, 150 mM NaCl, 3.4 mM EDTA, 0.005% P20, pH 7.4, 25°C; steady-state model; read-out: dissociation constant, SH3 DOMAINS YSC84
T3 construct: Experiments were carried out on sensor chips with GST-fused SH3 domains and GST as a control; made in house
T3 sequence (P32793 409-468 limits assumed): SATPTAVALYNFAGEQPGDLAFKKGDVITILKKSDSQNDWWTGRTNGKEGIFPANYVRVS
Description: as §1, §2

[4] = target: T4, Boi2 SH3 domain (GST-fused) (Saccharomyces cerevisiae, UniProt P39969); assay: Surface plasmon resonance (BIAcoreX) dissociation constants of peptides, Boi2 SH3 domain; conditions: Figure 4A; SPR BIAcoreX, GST-SH3 coupled to CM5 chip, GST control; peptides in 10 mM HEPES, 150 mM NaCl, 3.4 mM EDTA, 0.005% P20, pH 7.4, 25°C; steady-state model; read-out: dissociation constant, SH3 DOMAINS BOI2
T4 construct: Experiments were carried out on sensor chips with GST-fused SH3 domains and GST as a control; made in house
T4 sequence (P39969 43-107 limits assumed): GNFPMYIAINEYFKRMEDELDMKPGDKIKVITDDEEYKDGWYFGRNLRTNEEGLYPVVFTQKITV
Description: as §1, §2

Kd [1] [µM]	Kd [2] [µM]	Kd [3] [µM]	Kd [4] [µM]	Sequence
> 100	> 100	> 100	> 100	DIKTRSVPKIPSIE [DEM1 DIKTRSVPKIPSIE]
56	4.2	13	> 100	NAPERAVPILPPRN [YBR108W NAPERAVPILPPRN]
	1.3	1.6	> 100	RGPPPLPPRANVQP [ACF2 RGPPPLPPRANVQP]
16	4.8	3.3	> 100	SSPPPLPTRRDHIK [YPR171 SSPPPLPTRRDHIK]
32	19	27	> 100	PQQNRPLPQLPNRN [LAS17 PQQNRPLPQLPNRN]
30	8.9	9.6	> 100	RPLPQLPNRNNRPV [LAS17 RPLPQLPNRNNRPV]
28	11	9.1	> 100	STPPTLPPRRIEDP [YMR192 STPPTLPPRRIEDP]
16	3.5	5	> 100	SGPPLLPPRNTMKN [YJR083C SGPPLLPPRNTMKN]
39	22	16	> 100	NIQPDLPPRKIMIP [YBR239C NIQPDLPPRKIMIP]
6.3	1.7	1.1	> 100	GTTNRGPPPLPPRA [ACF2 GTTNRGPPPLPPRA]
39	14	13	> 100	RAVPILPPRNNVEP [YBR108W RAVPILPPRNNVEP]
